Experiments:
[1] = tested on: B. longum subsp. infantis; assay: Viability of B. longum subsp. infantis after exposure to acid reducing compounds (anaerobic CFU); format: cell-based; settings: 1 μg/ml and 0.5 μg/ml in citrate buffer (pH 5), 3 hours at 37° C.; with respect to buffer only controls
Experimental: Viability of B. longum subsp. infantis following exposure to various acid reducing compounds was examined. The benzimidazole derivative compounds omeprazole, esomeprazole, lansoprazole, pantoprazole, and rabeprazole and the H2 receptor antagonist famotidine were suspended in citrate buffer (pH 5) to concentrations of 1 μg/ml and 0.5 μg/ml. An amount of 2.4×10^8 colony forming units (CFU) B. longum subsp. infantis was pelleted and resuspended in each of the citrate buffer and drug solutions. Controls included 2.4×10^8 CFU B. longum subsp. infantis added to citrate buffer alone. Cells were incubated for 3 hours at 37° C. and then plated under anaerobic conditions. Anaerobic CFU were quantified to assess viability.

[2] = tested on: B. longum subsp. infantis; assay: Growth of B. longum subsp. infantis in the presence of acid-reducing compounds (OD600); format: cell-based; settings: 24 hours; 125 μg/mL; versus vehicle controls
Experimental: Growth of B. longum subsp. infantis was assessed in the presence of various acid-reducing compounds, including proton pump inhibitor (PPI) compounds and an H2 receptor antagonist. Stock solutions were prepared by adding 10 mg/mL omeprazole, esomeprazole, lansoprazole, pantoprazole, rabeprazole, and famotidine to DMSO. The stock solutions were diluted 1:4 in PBS and then added in 2-fold serial dilutions to Reinforced Clostridial Media (RCM). The media was then inoculated with 5×10^5 colony forming units (CFU) of B. longum subsp. infantis and incubated under anaerobic conditions at 37° C. Vehicle only control groups consisted of 5×10^5 CFU B. longum subsp. infantis incubated in RCM with the same amounts of PBS and DMSO as the PPI conditions for each dose.

Cc1c(OCC(F)(F)F)ccnc1C[S+]([O-])c1nc2ccccc2[nH]1 (centres unmarked) [lansoprazole]
anaerobic CFU counts [1]: generally higher
OD600 values [2]: reduced OD600 values with respect to vehicle controls

Reference: US12364721B2, “Compositions and methods for treatment of inflammatory and immune diseases” (Prolacta Bioscience, Inc., priority 2019, dated 2025)
